Like-named read-outs stand apart in the source and are kept apart here.
Assays:
[1] = system: ^3H-THK5351 binding sites in the hippocampus; set-up: method as in Lemoine et al. [12]; settings: ref Lemoine et al. [12], cited from earlier work; for Fraction of sites with super-high affinity for the competitor (%): radioligand ^3H-THK5351
[2] = biological target: ^3H-MK6240 binding sites in the temporal cortex (Homo sapiens, UniProt P10636); test: Competitive binding assay with ^3H-MK6240 (0.5 nM) on AD temporal cortex homogenates; settings: for Fraction of sites with super-high affinity for the competitor (%): radioligand ^3H-MK6240, temporal cortex; for IC50: 2-site competition model, temporal cortex
^3H-MK6240 binding sites in the temporal cortex, sequence (P10636 623-695 limits assumed): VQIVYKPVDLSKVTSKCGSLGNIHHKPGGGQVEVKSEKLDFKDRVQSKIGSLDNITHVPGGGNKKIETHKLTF
Experimental: (§1) Frozen post-mortem tissue from eight AD and seven control brains from the Netherlands Brain Bank (NBB) was homogenized in phosphate buffer saline (PBS) with additional 0.1% bovine serum albumin (BSA; […]) and protease/phosphatase inhibitors (10 μL/mL).
Competitive binding assays with ^3H-MK6240 (0.5 nM) were carried out for 90 min at 37 °C on temporal cortex homogenates from two AD brains, in PBS + 0.1% BSA (pH 7.4), using increasing concentrations of unlabelled MK6240, unlabelled THK5117 or unlabelled AV-1451 (1.10^−14–1.10^−5 M). The binding assay was terminated as described above. The half-maximal […] concentration (IC50) was determined using GraphPad Prism software and data were analysed using a 2-site competition model.

[3] = system: ^18F-AV-1451 binding sites in AD brains; set-up: method as in Ni et al. (unpublished data); settings: versus ^18F-AV-1451, ref Ni et al. (unpublished data), cited from earlier work
AD tissue = settings: ref [7], [21], cited from earlier work
[4] = system: ^3H-AV-1451 binding sites; set-up: method as in Hostetler et al. [21]; settings: ref Hostetler et al. [21]; cited from earlier work
[5] = system: ^3H-THK5351 binding sites in the hippocampus; test: Competitive binding assay with ^3H-THK5351 (1.5 nM) on AD hippocampus homogenates; set-up: species or system human
Experimental: as §1
Competitive binding assays were also carried out with ^3H-THK5351 (1.5 nM) in PBS + 0.1% BSA (pH 7.4) on hippocampus homogenates, using increasing concentrations of unlabelled MK6240 (1.10^−14–1.10^−5 M) in PBS + 0.1% BSA for 2 h at room temperature.

[6] = site 2, high affinity, read-out: IC50(High)
[7] = site 1, super-high affinity, read-out: IC50(supHigh)

Row | SMILES | Low affinity sites, fraction ([1]; ^3H-THK5351 competitions) [%] | Fraction of sites with super-high affinity for the competitor (%) [1] [%] | High affinity sites, fraction ([2]; ^3H-MK6240 competitions) [%] | Fraction of sites with super-high affinity for the competitor (%) [2] [%] | IC50 [2, 6] [nM] | Proportion of sites with high affinity for the competitor ([3]; frontal cortex) [%] | Proportion of sites with high affinity for the competitor ([3]; temporal cortex of AD brains) [%] | Kd (AD tissue; unit inferred) [nM] | IC50 [2, 7] [nM] | Competition with ^3H-AV-1451 [4] | Fraction of sites with super-high affinity for the competitor (%) ([5]; radioligand ^3H-THK5351, hippocampus) | Competition with ^3H-THK5351 ([5]; unlabelled MK6240 1.10^-14-1.10^-5 M, hippocampus of three AD patients) | High affinity sites, fraction ([1]; ^3H-THK5351 competitions) [%] | Low affinity sites, fraction ([2]; ^3H-MK6240 competitions) [%] | IC50 ([2]; site 2, low affinity, read-out: IC50(low)) [nM] | Kd (AD tissue) [nM]
1 | Fc1ccc(-c2ccc3c(c2)[nH]c2ccncc23)cn1 [AV-1451] | 65 | 35 | 26 | 74 | 2 | 61 | 88 | 0.6 to 3.7 |  |  |  |  |  |  |  | 
2 | Nc1c(F)ccc2cnc(-n3ccc4ccncc43)cc12 [MK6240] |  |  | 42 | 58 | 12 |  |  |  | 0.001 | lack of competition | 0 | did not compete |  |  |  | 
3 | CNc1ccc(-c2ccc3cc(OCC(O)CF)ccc3n2)cc1 (stereo not drawn) [THK5117] |  | 46 |  | 37 |  |  |  |  | 0.002 |  |  |  | 54 | 63 | 304 | 2.2
4 | CNc1ccc(-c2ccc3cc(OC[C@H](O)CF)ccc3n2)cn1 [THK5351] |  | 62 |  |  |  |  |  |  |  |  |  |  | 38 |  |  | 

From PMC8041708, “Characterization of MK6240, a tau PET tracer, in autopsy brain tissue from Alzheimer’s disease cases” (European Journal of Nuclear Medicine and Molecular Imaging, 2020)
